Results: the supplement of paper PMC11451515

Tested on: NOMO1
Assay: cell viability relative to DMSO control; higher = less cytotoxic
Conditions: 48 h
In short: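 In 1536-well plates, 5 μl of leukemia cells were seeded per well: 500 cells/well for NOMO1 or SEM and 1000 cells/well for P12-Ichikawa. Each line had first been adapted for at least four passages in each medium. Library compounds in DMSO were pin-dosed at 11 threefold concentrations between 47 μM and 0.79 nM, and CellTiter-Glo One luminescence was read after 48 h at 37°C. Viability is a per-plate percentage relative to DMSO wells, with cell-free wells as background.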

[1] = HPLM + 10% dialyzed FBS, 0.000781 µM
[2] = HPLM + 10% dialyzed FBS, 0.00234 µM
[3] = HPLM + 10% dialyzed FBS, 0.00702 µM
[4] = HPLM + 10% dialyzed FBS, 0.0211 µM
[5] = HPLM + 10% dialyzed FBS, 0.0632 µM
[6] = HPLM + 10% dialyzed FBS, 0.19 µM
[7] = HPLM + 10% dialyzed FBS, 0.569 µM
[8] = HPLM + 10% dialyzed FBS, 1.71 µM
[9] = HPLM + 10% dialyzed FBS, 5.12 µM
[10] = HPLM + 10% dialyzed FBS, 15.4 µM
[11] = HPLM + 10% dialyzed FBS, 46.1 µM
[12] = RPMI 5 mM glucose + 10% FBS, 0.000781 µM
[13] = RPMI 5 mM glucose + 10% FBS, 0.00234 µM
[14] = RPMI 5 mM glucose + 10% FBS, 0.00702 µM
[15] = RPMI 5 mM glucose + 10% FBS, 0.0211 µM
[16] = RPMI 5 mM glucose + 10% FBS, 0.0632 µM
[17] = RPMI 5 mM glucose + 10% FBS, 0.19 µM
[18] = RPMI 5 mM glucose + 10% FBS, 0.569 µM
[19] = RPMI 5 mM glucose + 10% FBS, 1.71 µM
[20] = RPMI 5 mM glucose + 10% FBS, 5.12 µM
[21] = RPMI 5 mM glucose + 10% FBS, 15.4 µM
[22] = RPMI 5 mM glucose + 10% FBS, 46.1 µM
[23] = RPMI 5 mM glucose + 10% dialyzed FBS, 0.000781 µM
[24] = RPMI 5 mM glucose + 10% dialyzed FBS, 0.00234 µM
[25] = RPMI 5 mM glucose + 10% dialyzed FBS, 0.00702 µM
[26] = RPMI 5 mM glucose + 10% dialyzed FBS, 0.0211 µM
[27] = RPMI 5 mM glucose + 10% dialyzed FBS, 0.0632 µM
[28] = RPMI 5 mM glucose + 10% dialyzed FBS, 0.19 µM
[29] = RPMI 5 mM glucose + 10% dialyzed FBS, 0.569 µM
[30] = RPMI 5 mM glucose + 10% dialyzed FBS, 1.71 µM
[31] = RPMI 5 mM glucose + 10% dialyzed FBS, 5.12 µM
[32] = RPMI 5 mM glucose + 10% dialyzed FBS, 15.4 µM
[33] = RPMI 5 mM glucose + 10% dialyzed FBS, 46.1 µM

## Cc1cnc(Nc2ccc(CN3CCOCC3)cc2)nc1Nc1cccc([S+](=O)([O-])NC(C)(C)C)c1
[1]
  cell viability: 87.4%
[2]
  cell viability: 98.1%
[3]
  cell viability: 99.1%
[4]
  cell viability: 86.6%
[5]
  cell viability: 81.3%
[6]
  cell viability: 86.9%
[7]
  cell viability: 93.7%
[8]
  cell viability: 75.6%
[9]
  cell viability: 48.1%
[10]
  cell viability: 15.5%
[11]
  cell viability: 10.3%
[12]
  cell viability: 67.8%
[13]
  cell viability: 80%
[14]
  cell viability: 79.7%
[15]
  cell viability: 71.5%
[16]
  cell viability: 75.1%
[17]
  cell viability: 74.2%
[18]
  cell viability: 78.9%
[19]
  cell viability: 68%
[20]
  cell viability: 30.8%
[21]
  cell viability: 8.44%
[22]
  cell viability: 7.72%
[23]
  cell viability: 75.4%
[24]
  cell viability: 85.6%
[25]
  cell viability: 89.4%
[26]
  cell viability: 79.2%
[27]
  cell viability: 84.4%
[28]
  cell viability: 80.8%
[29]
  cell viability: 57.8%
[30]
  cell viability: 69.8%
[31]
  cell viability: 38.3%
[32]
  cell viability: 11.6%
[33]
  cell viability: 9.38%

## N=C(N)Nc1ccc(C(=O)Oc2ccc3cc(C(=N)N)ccc3c2)cc1
[1]
  cell viability: 96.3%
[2]
  cell viability: 103%
[3]
  cell viability: 100%
[4]
  cell viability: 100%
[5]
  cell viability: 101%
[6]
  cell viability: 95.6%
[7]
  cell viability: 93.5%
[8]
  cell viability: 100%
[9]
  cell viability: 81.1%
[10]
  cell viability: 89.6%
[11]
  cell viability: 48%
[12]
  cell viability: 93.7%
[13]
  cell viability: 84.8%
[14]
  cell viability: 83.5%
[15]
  cell viability: 86.6%
[16]
  cell viability: 90.8%
[17]
  cell viability: 86%
[18]
  cell viability: 90.7%
[19]
  cell viability: 89.8%
[20]
  cell viability: 90.5%
[21]
  cell viability: 73.3%
[22]
  cell viability: 50.6%
[23]
  cell viability: 86%
[24]
  cell viability: 85.3%
[25]
  cell viability: 78.6%
[26]
  cell viability: 90.4%
[27]
  cell viability: 95.3%
[28]
  cell viability: 92.4%
[29]
  cell viability: 79.4%
[30]
  cell viability: 83.7%
[31]
  cell viability: 88.7%
[32]
  cell viability: 70.5%
[33]
  cell viability: 45.3%

## NNc1nncc2ccccc12
[1]
  cell viability: 115%
[2]
  cell viability: 125%
[3]
  cell viability: 131%
[4]
  cell viability: 139%
[5]
  cell viability: 144%
[6]
  cell viability: 146%
[7]
  cell viability: 134%
[8]
  cell viability: 139%
[9]
  cell viability: 132%
[10]
  cell viability: 119%
[11]
  cell viability: 128%
[12]
  cell viability: 123%
[13]
  cell viability: 121%
[14]
  cell viability: 128%
[15]
  cell viability: 126%
[16]
  cell viability: 151%
[17]
  cell viability: 124%
[18]
  cell viability: 135%
[19]
  cell viability: 130%
[20]
  cell viability: 128%
[21]
  cell viability: 137%
[22]
  cell viability: 131%
[23]
  cell viability: 121%
[24]
  cell viability: 139%
[25]
  cell viability: 121%
[26]
  cell viability: 130%
[27]
  cell viability: 137%
[28]
  cell viability: 132%
[29]
  cell viability: 141%
[30]
  cell viability: 138%
[31]
  cell viability: 134%
[32]
  cell viability: 131%
[33]
  cell viability: 141%

## O=C(NCc1ccccc1)c1csc(Nc2ccncn2)n1
[1]
  cell viability: 86.8%
[2]
  cell viability: 95.2%
[3]
  cell viability: 101%
[4]
  cell viability: 94%
[5]
  cell viability: 121%
[6]
  cell viability: 97.3%
[7]
  cell viability: 97.6%
[8]
  cell viability: 51.2%
[9]
  cell viability: 26.7%
[10]
  cell viability: 4.88%
[11]
  cell viability: 2.11%
[12]
  cell viability: 90.8%
[13]
  cell viability: 82.1%
[14]
  cell viability: 98.6%
[15]
  cell viability: 83%
[16]
  cell viability: 94.8%
[17]
  cell viability: 98.2%
[18]
  cell viability: 95.4%
[19]
  cell viability: 56.6%
[20]
  cell viability: 33.4%
[21]
  cell viability: 4.95%
[22]
  cell viability: 3.15%
[23]
  cell viability: 92%
[24]
  cell viability: 95%
[25]
  cell viability: 93.2%
[26]
  cell viability: 85.2%
[27]
  cell viability: 93.7%
[28]
  cell viability: 77.2%
[29]
  cell viability: 103%
[30]
  cell viability: 67.7%
[31]
  cell viability: 33.9%
[32]
  cell viability: 4.75%
[33]
  cell viability: 3.19%

## CN1CCN(CCCN2c3ccccc3Sc3ccc(Cl)cc32)CC1.O=C(O)/C=C\C(=O)O.O=C(O)/C=C\C(=O)O
[1]
  cell viability: 112%
[2]
  cell viability: 123%
[3]
  cell viability: 112%
[4]
  cell viability: 111%
[5]
  cell viability: 124%
[6]
  cell viability: 110%
[7]
  cell viability: 106%
[8]
  cell viability: 47.9%
[9]
  cell viability: 42.8%
[10]
  cell viability: 29.9%
[11]
  cell viability: 32.1%
[12]
  cell viability: 97.8%
[13]
  cell viability: 106%
[14]
  cell viability: 112%
[15]
  cell viability: 107%
[16]
  cell viability: 109%
[17]
  cell viability: 101%
[18]
  cell viability: 108%
[19]
  cell viability: 81.9%
[20]
  cell viability: 58.3%
[21]
  cell viability: 24.2%
[22]
  cell viability: 28.4%
[23]
  cell viability: 94.7%
[24]
  cell viability: 104%
[25]
  cell viability: 127%
[26]
  cell viability: 106%
[27]
  cell viability: 117%
[28]
  cell viability: 115%
[29]
  cell viability: 116%
[30]
  cell viability: 68.9%
[31]
  cell viability: 73%
[32]
  cell viability: 28.3%
[33]
  cell viability: 31.9%

## CN(C)CCc1c[nH]c2ccc(C[S+](=O)([O-])N3CCCC3)cc12
[1]
  cell viability: 95.2%
[2]
  cell viability: 118%
[3]
  cell viability: 104%
[4]
  cell viability: 109%
[5]
  cell viability: 118%
[6]
  cell viability: 113%
[7]
  cell viability: 102%
[8]
  cell viability: 125%
[9]
  cell viability: 107%
[10]
  cell viability: 96.2%
[11]
  cell viability: 60.2%
[12]
  cell viability: 96.7%
[13]
  cell viability: 107%
[14]
  cell viability: 97.1%
[15]
  cell viability: 104%
[16]
  cell viability: 123%
[17]
  cell viability: 97.1%
[18]
  cell viability: 99.3%
[19]
  cell viability: 98.5%
[20]
  cell viability: 96.4%
[21]
  cell viability: 97.6%
[22]
  cell viability: 72.2%
[23]
  cell viability: 99.5%
[24]
  cell viability: 95.8%
[25]
  cell viability: 113%
[26]
  cell viability: 103%
[27]
  cell viability: 106%
[28]
  cell viability: 109%
[29]
  cell viability: 115%
[30]
  cell viability: 102%
[31]
  cell viability: 106%
[32]
  cell viability: 92%
[33]
  cell viability: 58.8%

## Cc1cccc(-c2[nH]c(C(C)(C)C)nc2-c2ccc3c(c2)OCO3)n1
[1]
  cell viability: 94.7%
[2]
  cell viability: 105%
[3]
  cell viability: 107%
[4]
  cell viability: 114%
[5]
  cell viability: 115%
[6]
  cell viability: 95.4%
[7]
  cell viability: 104%
[8]
  cell viability: 114%
[9]
  cell viability: 103%
[10]
  cell viability: 24%
[11]
  cell viability: 11.9%
[12]
  cell viability: 97.4%
[13]
  cell viability: 106%
[14]
  cell viability: 100%
[15]
  cell viability: 93.4%
[16]
  cell viability: 101%
[17]
  cell viability: 92.7%
[18]
  cell viability: 100%
[19]
  cell viability: 92.6%
[20]
  cell viability: 86.3%
[21]
  cell viability: 11.5%
[22]
  cell viability: 8.98%
[23]
  cell viability: 101%
[24]
  cell viability: 92.1%
[25]
  cell viability: 94.4%
[26]
  cell viability: 94.3%
[27]
  cell viability: 107%
[28]
  cell viability: 86.9%
[29]
  cell viability: 92.8%
[30]
  cell viability: 97.2%
[31]
  cell viability: 97.3%
[32]
  cell viability: 13.9%
[33]
  cell viability: 9.64%
